Measurements published in patent US10874685B2, “Pancreatic cancer therapy and diagnosis” (Deutsches Krebsforschungszentrum Stiftung des Öffentlichen …, priority 2014, dated 2020).
Entries after “also recorded” stand apart in the source; their conditions may differ.

Experiments:
[1] = tested on: MIAPaCa-2, PANC-1 and AsPC-1 cells; assay: Glucose uptake measurement (labelled 2-DG) in PDAC cell lines; type: cell-based, human; conditions: all three cell lines; relative to DMSO control
Text: (§1) Measurement of 2-deoxy-D-glucose uptake shown on the y-axis relative to control by PDAC cell lines (MIAPaCa2, left; PANC-1, middle; AsPC1, right) treated with DMSO (C), pimozide (P) or haloperidol (H) (FIG. 10A). Abundance of free cholesterol, as measured by staining with filipin, after treatment with haloperidol (H) or pimozide (P) in PDAC cell lines (MIAPaCa2, left; PANC-1, middle; AsPC1, right) (FIG. 10B top). Representative micrographs of filipin-labelled cholesterol. PDAC (MIAPaCa2, top; PANC-1, middle; AsPC1, bottom) cells were seeded for 24 hours and treated with 10 μM haloperidol (H) or pimozide (P) or DMSO for 18 hours (FIG. 10B bottom). Red-fluorescence represents propidium iodide (PI)-stained nuclei and blue-fluorescence represents filipin-stained cholesterol. mRNA levels of genes relative to R-actin shown on the y-axis involved in cholesterol biosynthesis (from left to right: SREBP1, SREBP2, INSIG1, HMGCR, LDLR) measured by qRT-PCR 18 hours post-treatment with DMSO (C), haloperidol (H) or pimozide (P) in three PDAC cell lines (MIAPaCa2, top; PANC-1, middle; AsPC1, bottom) (FIG. 10C).
The induction effect of pimozide or haloperidol on labeled 2-DG uptake in cancer cells were determined from measurement of the fluorescence intensity of cell lysates. […]

[2] = tested on: KPC-023, KPC-01 and KPC-LM pancreatic cancer cell lines; assay: Viability of primary and metastatic pancreatic cancer cell lines isolated from KPC mice; type: cell-based; conditions: primary (KPC-023, KPC-01) and metastatic (KPC-LM) lines
[3] = tested on: SREBP1, SREBP2, INSIG1, HMGCR, LDLR mRNA; assay: qRT-PCR of cholesterol biosynthesis genes in PDAC cell lines; type: cell-based, human; conditions: qRT-PCR 18 hours post-treatment; relative to actin
Text: as §1
For mice xenograft tissue samples and cultured cells, the miRNeasy kit (Qiagen, Valencia, Calif.) was used to extract total RNA. […] Quantification values were calculated according to a standard curve method created from a dilution series. […]

MIAPaCa-2 cells = assay: Orthotopic pancreatic tumor mouse model treated with DRD2 antagonists; type: in vivo, mice; conditions: compared to vehicle
Experimental: Two million MIAPaCa-2 cells were resuspended in 10 μL Matrigel (BD Biosciences, San Jose, Calif.) were orthotopically implanted into the tail of the pancreas of 6-week-old Nod scid gamma animals (Jackson Labs, Bar Harbor, Me.) (day 1). When tumors were palpable (day 27), mice were randomized into 2 groups (n=7 in control group and n=9 in haloperidol group) and injected intraperitoneally with either haloperidol (10 mg/kg) or solvent (dimethylsulfoxide [DMSO] control group) for 12 days. The experiment was terminated when control mice appeared moribund. Weight of the animal and final tumor weight and volume were measured.

[4] = tested on: MIAPaCa-2, PANC-1 and AsPC-1 cells; assay: Free cholesterol measurement (Filipin staining) in PDAC cell lines; type: cell-based, human; conditions: 10 μM, 18 hours; vs DMSO
Text: as §1
Cancer cells were seeded for 24 hours and treated with pimozide, haloperidol or DMSO for 18 hours. The cells were fixed with paraformaldehyde, stained with Filipin™ and propidium iodide (PI), and photographed. Filipin™ is a fluorescent polyene antibiotic that binds to free cholesterol. […]

[5] = tested on: PANC-1, MIAPaCa-2 and AsPC-1 cell lines; assay: PDAC cell line growth curves under combination therapy; type: cell-based, human; conditions: over time
Text: FIGS. 11A and 11B show PDAC cell line growth curves following combination therapy with DRD2 antagonists, 2-deoxy-D-glucose, and atorvastatin. Percentage cell growth shown on the y-axis following treatment with control (blue line), pimozide (Pim, gray line), atorvastatin and 2-deoxy-D-glucose (ATR+2-DG, red line) and combination of Pim and ATR+2-DG (green line) over time in PANC-1 (top), MIAPaCa-2 (middle) and AsPC-1 (bottom) cell lines (FIG. 11A). Haloperidol (Hal, gray line) is used as the DRD2 antagonist for use alone or in combination with ATR+2-DG as described in A (FIG. 11B). Dosage are indicated for each cell line.
PDAC cell proliferation was measured during pharmacological inhibition of DRD2 alone and in combination with blockade of glycolysis and cholesterol synthesis. To suppress glycolysis, 2-DG, a glucose analog which is a competitor inhibitor of glucose metabolism, was used. To inhibit cholesterol synthesis, atorvastatin (ATR), a competitive inhibitor of 3-hydroxy-3-methylglutaryl-coenzyme A (HMG-CoA) reductase in the cholesterol biosynthesis pathway was used.

pituitary tumor cells = conditions: after treatment; cited from earlier work
[6] = tested on: locally advanced, unresectable, or metastatic pancreatic adenocarcinoma; conditions: patients with locally advanced; cited from earlier work
MIAPaCa-2 xenograft = assay: Combination therapy in NSG mice, MIAPaCa-2 xenograft model; type: in vivo; conditions: i.p. 16 days; pimozide 10 mg/kg daily; gemcitabine 20 mg/kg every 4 days
Text: Tumor volumes normalized to initial measurement shown in the y-axis every four days following treatment with either vehicle (gray line), the chemotherapeutic gemcitabine (green line), a combination therapy of 2-deoxy-D-glucose, atorvastatin and pimozide (2DG+ATR+Pim, redline), or a combination therapy of 2DG+ATR+Pim and gemcitabine (2DG+ATR+Pim+Gem, red dashed line) (FIG. 12A). […] Tumor weight (FIG. 12C) and volume of samples (FIG. 12D) harvested following treatment with, from left to right, control (Vehicle), 2DG+ATR, Pim alone, Pim+2DG+ATR, Gem alone, 2DG+ATR+Gem, Pim+Gem, or Pim+2DG+ATR+Gem.
NOD severe combined immunodeficiency gamma (NSG) mice were subcutaneously injected in the right flank with five million MIAPaCa-2 cells. Once tumors were detectable (200 mm^3), mice were randomized into 8 groups (5 in each group) and treated through intraperitoneal injection as indicated for 16 days. All drugs were given every day whereas gemcitabine was given every 4 days, alone or in combination. Experiment was terminated when control animals became moribund. The growth of tumors was measured every 4 days. Tumors were harvested and photographed. Tumor weights and volumes were measured.
The efficacy of the combined treatment approach was investigated using a MIAPaCa-2 xenograft model of pancreatic cancer.

[7] = tested on: pancreatic cancer cell lines (PANC-1, CFPAC-1, CAPAN-1, MIAPaCa-2, BXPC-3); assay: Sulforhodamine B (SRB) cytotoxicity assay on pancreatic cancer cell lines; type: cell-based, human; conditions: increasing concentration, 72 h
Experimental: PANC-1, CFPAC-1, CAPAN-1, MIAPaCa-2, BXPC-3 and fibroblast cells were seeded for 24 h and were exposed to increasing concentration of Pimozide and vehicle for 72 h (FIG. 3A). The same procedure was followed for treatment of cancer cell lines with L741 (FIG. 3B). Cell viability was characterized using a SRB assay. Values are the mean+/−SD of six independent experiments.
Five pancreatic ductal cancer cell lines with various degree of differentiation were obtained from American Type Culture Collection (Rockville, USA) and Normal Human Dermal Fibroblasts (NHDF) obtained from PromoCell. BXPC-3 (moderately differentiated) as well as poorly differentiated human pancreatic cancer cell lines, PANC-1 and MIAPaCa-2, have been established from primary tumor. AsPC-1, CAPAN-1 and CFPAC-1 which represent well differentiated cell lines was isolated from ascites and liver metastasis of pancreas adenocarcinoma. All cell lines contain mutation in P53 whereas K-ras mutation reported in all with the exception of BxPc3. BRCA2 mutation just reported in CAPAN-1 cells.
Sulforhodamine B sodium salt (sigma) was used to assess cell viability and IC50 determination of pancreatic cancer cells. […] Cell viability was specified by using plate reader (TECAN) with measuring of absorbance at 570 and 650 nm (background) in treated or untreated 96 well plate.

PANC-1 cells = assay: Wound healing (scratching) assay for cell migration; type: cell-based, human; conditions: PANC-1, increasing concentrations, 10 h
Experimental: PANC-1 cells were plated in the chamber were already attached in 12 well plate and allowed to grow for 24 h. Then, a wound was made in the confluent monolayer by removing the chamber. Cells were exposed to increasing concentration of Pimozide (FIG. 6A) or L741 (FIG. 6B) and vehicle for 10 h. Wound gap closure was measured for each drug concentration by comparing the gap at time 0 h to the one at the time 10 h when the gap closed in negative control and normalized to untreated condition.
PANC-1 cells were seeded into the 35 mm-dish culture-silicon Insert frames from Ibidi where already attached to the 6 well culture plate. When 96-98% confluency was achieved, the insert frames were removed using sterile forceps to reach cell free gap. To create a reference point for subsequent measurements, three different part of the gap was marked on the underside of the plastic. Floating cells and cell debris were washed using PBS, relative culture medium was added to each wells and migration distance was photographed using a Zeiss Axiovert 24 light microscope at zero time in the marked areas. Afterward, the wells were treated by addition of DMSO as control and different increasing concentration of Pim and L741. Plates were then placed into the incubator and the cells were allowed to migrate until the time when the gap for the […] closed (t time). Images were taken from the marked areas again. This assay was performed employing various concentrations of drugs at which maximum 5% viability inhibition was observed after 10 h treatment.

O=C(CCCN1CCC(O)(c2ccc(Cl)cc2)CC1)c1ccc(F)cc1 [haloperidol]
glucose uptake (intracellular labelled 2-deoxy-D-glucose) [1]: elevated uptake of glucose; also recorded: enhanced glucose and cholesterol uptake
viability of KPC mouse pancreatic cancer cell lines [2]: sensitive; also recorded: Dose-dependent effects
expression of genes involved in lipogenesis / cholesterol biosynthesis [3]: inducing expression of genes involved in lipogenesis
metastatic dissemination (MIAPaCa-2 cells): reduces tumor volume, metastasis
tumor volume (MIAPaCa-2 cells; haloperidol 10 mg/kg intraperitoneally for 12 days): reduces tumor volume
abundance of free cholesterol (Filipin staining) [4]: increased the abundance of free cholesterol; also recorded: enhanced glucose and cholesterol uptake
cell growth [5]: reduced cell growth

NCCc1ccc(O)c(O)c1 [dopamine]
cancer cell viability (pituitary tumor cells): decreased significantly

Nc1ccn([C@@H]2O[C@H](CO)[C@@H](O)C2(F)F)c(=O)n1 [gemcitabine, 4-amino-1-[(2R,4R,5R)-3,3-difluoro-4-hydroxy-5-(hydroxymethyl)oxolan-2-yl]pyrimidin-2-one]
1-year survival rate [6]: 21%
median overall survival (OS) [6]: 6 months
tumor volume (MIAPaCa-2 xenograft): reduced tumor weight and volume
tumor weight (MIAPaCa-2 xenograft): reduced tumor weight

OC1(c2ccc(Cl)cc2)CCN(Cc2c[nH]c3ccccc23)CC1 [L-741,626]
viability of KPC mouse pancreatic cancer cell lines [2]: sensitive; also recorded: Dose-dependent effects
cell viability of pancreatic cancer cell lines [7]: Specific toxicity effect; also recorded: dose dependent toxicity effect
tumor cell migration (wound gap closure) (PANC-1 cells): tumor cell migration was affected
tumor cell migration (wound gap closure) (PANC-1 cells; listed as L741): dose dependent inhibitory effect
